Consider 31 compounds from patent publication US20250179061A1 (SIRONAX LTD., priority 2022, published 2025).

SMILES strings stand for the structures. pIC50: −log10 of the molar value.

The experiment deals with HT-29 cells. Put plainly: HT-29 necroptosis cell viability assay (TNF-α/SMAC mimetic/zVAD-FMK, CellTiter-Glo). The conditions noted are these: Homo sapiens, HT-29, HT-29 necroptosis cell viability, IC50 class symbols; read-out: Activity. The experiment is classed as cell-based. An outline of the steps:
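Necroptosis was triggered by TNF-α (10 ng/ml), SMAC mimetic (6 μM) and zVAD-FMK (10 μM) in serum-free medium during 20 h compound exposure (10 concentrations, threefold steps) of HT-29 cells. IC50 from duplicate dose-responses uses CellTiter-Glo ATP luminescence as viability read-out.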

For `Cn1c(Oc2ccc(-n3nc(Cl)n(Cc4ccccc4)c3=O)cc2)cccc1=O` [Example 429, 6-(4-(4-benzyl-3-chloro-5-oxo-4,5-dihydro-1H-1,2,4-triazol-1-yl)phenoxy)-1-methylpyridin-2(1H)-one], the pIC50 was 6.00 to 7.00. `O=c1n(-c2ccc(Oc3ccccc3[N+](=O)[O-])cc2)nc(Cl)n1Cc1ccccc1` [Example 430, 4-benzyl-5-chloro-2-(4-(2-nitrophenoxy)phenyl)-2,4-dihydro-3H-1,2,4-triazol-3-one]: the pIC50 was 6.00 to 7.00.

As to `O=c1n(Cc2c(F)cccc2F)cnn1-c1ccc(Oc2ccnnc2)cc1` [Example 431, 4-(2,6-difluorobenzyl)-2-(4-(pyridazin-4-yloxy)phenyl)-2,4-dihydro-3H-1,2,4-triazol-3-one], the pIC50 was 5.00 to 6.00. As for `O=c1n(Cc2c(F)cccc2F)cnn1-c1ccc(Oc2ccncc2Br)cc1` [Example 432, 2-(4-((3-bromopyridin-4-yl)oxy)phenyl)-4-(2,6-difluorobenzyl)-2,4-dihydro-3H-1,2,4-triazol-3-one], the pIC50 is more than 7.00.

Consider `O=c1n(Cc2c(F)cccc2F)cnn1-c1ccc(Oc2ccccc2[N+](=O)[O-])cc1` [Example 433, 4-(2,6-difluorobenzyl)-2-(4-(2-nitrophenoxy)phenyl)-2,4-dihydro-3H-1,2,4-triazol-3-one], for which the pIC50 was 6.00 to 7.00. With `O=c1n(Cc2c(F)cccc2F)cnn1-c1ccc(Oc2c(Cl)cccc2[N+](=O)[O-])cc1` [Example 434, 2-(4-(2-chloro-6-nitrophenoxy)phenyl)-4-(2,6-difluorobenzyl)-2,4-dihydro-3H-1,2,4-triazol-3-one], the pIC50 is more than 7.00.

With `N#Cc1ccc(Oc2ccc(-n3ncn(Cc4c(F)cccc4F)c3=O)cc2)cc1` [Example 435, 4-(4-(4-(2,6-difluorobenzyl)-5-oxo-4,5-dihydro-1H-1,2,4-triazol-1-yl)phenoxy)benzonitrile], the pIC50 was 6.00 to 7.00.

Regarding `COc1cc(Oc2ccc(-n3ncn(Cc4c(F)cccc4F)c3=O)cc2)cc(OC)n1` [Example 436, 4-(2,6-difluorobenzyl)-2-(4-((2,6-dimethoxypyridin-4-yl)oxy)phenyl)-2,4-dihydro-3H-1,2,4-triazol-3-one], the pIC50 was 6.00 to 7.00.

`N#Cc1cccc(Oc2ccc(-n3ncn(Cc4c(F)cccc4F)c3=O)cc2)c1` [Example 437, 3-(4-(4-(2,6-difluorobenzyl)-5-oxo-4,5-dihydro-1H-1,2,4-triazol-1-yl)phenoxy)benzonitrile]: the pIC50 is more than 7.00. Take `O=c1n(Cc2c(F)cccc2F)cnn1-c1ccc(Oc2ccncc2)cc1` [Example 438, 4-(2,6-difluorobenzyl)-2-(4-(pyridin-4-yloxy)phenyl)-2,4-dihydro-3H-1,2,4-triazol-3-one]: the pIC50 was 6.00 to 7.00. Take `Nc1ccccc1Oc1ccc(-n2ncn(Cc3c(F)cccc3F)c2=O)cc1` [Example 439, 2-(4-(2-aminophenoxy)phenyl)-4-(2,6-difluorobenzyl)-2,4-dihydro-3H-1,2,4-triazol-3-one]: the pIC50 was more than 7.00.

As to `Nc1cccc(Cl)c1Oc1ccc(-n2ncn(Cc3c(F)cccc3F)c2=O)cc1` [Example 440, 2-(4-(2-amino-6-chlorophenoxy)phenyl)-4-(2,6-difluorobenzyl)-2,4-dihydro-3H-1,2,4-triazol-3-one], the pIC50 is more than 7.00. In the case of `Nc1cnc(Cl)cc1Oc1ccc(-n2ncn(Cc3c(F)cccc3F)c2=O)cc1` [Example 441, 2-(4-((5-amino-2-chloropyridin-4-yl)oxy)phenyl)-4-(2,6-difluorobenzyl)-2,4-dihydro-3H-1,2,4-triazol-3-one], the pIC50 was more than 7.00. Turning to `Nc1cccc(F)c1Oc1ccc(-n2ncn(Cc3c(F)cccc3F)c2=O)cc1` [Example 442, 2-(4-(2-amino-6-fluorophenoxy)phenyl)-4-(2,6-difluorobenzyl)-2,4-dihydro-3H-1,2,4-triazol-3-one], the pIC50 is more than 7.00. Turning to `Cn1ncc(N)c1Oc1ccc(-n2ncn(Cc3c(F)cccc3F)c2=O)cc1` [Example 443, 2-(4-((4-amino-1-methyl-1H-pyrazol-5-yl)oxy)phenyl)-4-(2,6-difluorobenzyl)-2,4-dihydro-3H-1,2,4-triazol-3-one], the pIC50 is 6.00 to 7.00.

For `Cc1nc(C(N)=O)sc1Oc1ccc(-n2nc3n(c2=O)[C@H](c2ccccc2)CO3)cc1F` [Example 445, (R)-5-(2-fluoro-4-(3-oxo-5-phenyl-5,6-dihydrooxazolo[2,3-c][1,2,4]triazol-2(3H)-yl)phenoxy)-4-methylthiazole-2-carboxamide], the pIC50 is more than 7.00. In the case of `Cc1nc(C(O)C(F)F)sc1Oc1ccc(-n2ncn(Cc3c(F)cccc3F)c2=O)cc1F` (stereo not shown) [Example 446, 2-(4-((2-(2,2-difluoro-1-hydroxyethyl)-4-methylthiazol-5-yl)oxy)-3-fluorophenyl)-4-(2,6-difluorobenzyl)-2,4-dihydro-3H-1,2,4-triazol-3-one], the pIC50 was more than 7.00. Turning to `Cc1nc(C(N)C(F)F)sc1Oc1ccc(-n2ncn(Cc3c(F)cccc3F)c2=O)cc1F` (stereo not shown) [Example 447, 2-(4-((2-(1-amino-2,2-difluoroethyl)-4-methylthiazol-5-yl)oxy)-3-fluorophenyl)-4-(2,6-difluorobenzyl)-2,4-dihydro-3H-1,2,4-triazol-3-one], the pIC50 is more than 7.00. Take `C[C@H]1[C@@H](O)CN1c1cc(Oc2ccc(-n3ncn(Cc4c(F)cccc4F)c3=O)cc2F)c(F)cn1` [Example 448, 4-(2,6-difluorobenzyl)-2-(3-fluoro-4-((5-fluoro-2-((2S,3S)-3-hydroxy-2-methylazetidin-1-yl)pyridin-4-yl)oxy)phenyl)-2,4-dihydro-3H-1,2,4-triazol-3-one]: the pIC50 is more than 7.00.

For the compound `CC(=O)c1nc(C)c(Oc2ccc(-n3ncn(Cc4c(F)cccc4F)c3=O)cc2F)s1` [Example 449, 2-(4-((2-acetyl-4-methylthiazol-5-yl)oxy)-3-fluorophenyl)-4-(2,6-difluorobenzyl)-2,4-dihydro-3H-1,2,4-triazol-3-one], the pIC50 is more than 7.00. Consider `Cc1nc(N2CC(N)(C(F)F)C2)sc1Oc1ccc(-n2ncn(Cc3c(F)cccc3F)c2=O)cc1F` [Example 450, 2-(4-((2-(3-amino-3-(difluoromethyl)azetidin-1-yl)-4-methylthiazol-5-yl)oxy)-3-fluorophenyl)-4-(2,6-difluorobenzyl)-2,4-dihydro-3H-1,2,4-triazol-3-one], for which the pIC50 was more than 7.00. The figure for `Cc1nc(N2CC(C)(N)C2)sc1Oc1ccc(-n2ncn(Cc3c(F)cccc3F)c2=O)cc1F` [Example 451, 2-(4-((2-(3-amino-3-methylazetidin-1-yl)-4-methylthiazol-5-yl)oxy)-3-fluorophenyl)-4-(2,6-difluorobenzyl)-2,4-dihydro-3H-1,2,4-triazol-3-one] is more than 7.00. With `Cc1nc(N2CC(N)(CF)C2)sc1Oc1ccc(-n2ncn(Cc3c(F)cccc3F)c2=O)cc1F` [Example 452, 2-(4-((2-(3-amino-3-(fluoromethyl)azetidin-1-yl)-4-methylthiazol-5-yl)oxy)-3-fluorophenyl)-4-(2,6-difluorobenzyl)-2,4-dihydro-3H-1,2,4-triazol-3-one], the pIC50 was more than 7.00. Regarding `Cc1nc(N2CC(N)(CF)C2)sc1Cc1ccc(-n2ncn(Cc3c(F)cccc3F)c2=O)cc1F` [Example 453, 2-(4-((2-(3-amino-3-(fluoromethyl)azetidin-1-yl)-4-methylthiazol-5-yl)methyl)-3-fluorophenyl)-4-(2,6-difluorobenzyl)-2,4-dihydro-3H-1,2,4-triazol-3-one], the pIC50 is more than 7.00. Take `Cc1nc(N2CCC(C)(C#N)C2)sc1Oc1ccc(-n2ncn(Cc3c(F)cccc3F)c2=O)cc1` (stereo not shown) [Example 454, 1-(5-(4-(4-(2,6-difluorobenzyl)-5-oxo-4,5-dihydro-1H-1,2,4-triazol-1-yl)phenoxy)-4-methylthiazol-2-yl)-3-methylpyrrolidine-3-carbonitrile]: the pIC50 is more than 7.00. The figure for `Cc1nc(N2CC3(CCN3)C2)sc1Oc1ccc(-n2ncn(Cc3c(F)cccc3F)c2=O)cc1` [Example 455, 4-(2,6-difluorobenzyl)-2-(4-((4-methyl-2-(1,6-diazaspiro[3.3]heptan-6-yl)thiazol-5-yl)oxy)phenyl)-2,4-dihydro-3H-1,2,4-triazol-3-one] is more than 7.00. Regarding `Cc1nc(N2CC(OC(C)(C)C)C2)sc1Oc1ccc(-n2ncn(Cc3c(F)cccc3F)c2=O)cc1` [Example 456, 2-(4-((2-(3-(tert-butoxy)azetidin-1-yl)-4-methylthiazol-5-yl)oxy)phenyl)-4-(2,6-difluorobenzyl)-2,4-dihydro-3H-1,2,4-triazol-3-one], the pIC50 was more than 7.00. In the case of `Cc1nc(N2CC3(CCO3)C2)sc1Oc1ccc(-n2ncn(Cc3c(F)cccc3F)c2=O)cc1` [Example 457, 4-(2,6-difluorobenzyl)-2-(4-((4-methyl-2-(1-oxa-6-azaspiro[3.3]heptan-6-yl)thiazol-5-yl)oxy)phenyl)-2,4-dihydro-3H-1,2,4-triazol-3-one], the pIC50 is more than 7.00.

With `Cc1nc(N)sc1Sc1ccc(-n2ncn(Cc3ccccc3)c2=O)cc1` [Example 458, 2-(4-((2-amino-4-methylthiazol-5-yl)thio)phenyl)-4-benzyl-2,4-dihydro-3H-1,2,4-triazol-3-one], the pIC50 is more than 7.00. The figure for `Cc1nc(C(C)(C)O)sc1Oc1ccc(-n2ncn(Cc3c(F)cccc3F)c2=O)cc1F` [Example 462, 4-(2,6-difluorobenzyl)-2-(3-fluoro-4-((2-(2-hydroxypropan-2-yl)-4-methylthiazol-5-yl)oxy)phenyl)-2,4-dihydro-3H-1,2,4-triazol-3-one] is more than 7.00; for `Cc1nc(C(C)(C)O)sc1Oc1ccc(-n2nc3n(c2=O)C(c2ccccc2)CC3)cc1F` (stereo not shown) [Example 463, 2-(3-fluoro-4-((2-(2-hydroxypropan-2-yl)-4-methylthiazol-5-yl)oxy)phenyl)-5-phenyl-2,5,6,7-tetrahydro-3H-pyrrolo[2,1-c][1,2,4]triazol-3-one] it is more than 7.00.
